Data published in patent EP3248604A1, “AGENTS FOR MODULATION OF WNT-TCF SIGNALLING AND USES THEREOF” (UNIVERSITE DE GENEVE, priority 2016, dated 2017).

Tests used:
[1] = test system: Epigenetic regulators; assay: RT-qPCR of epigenetic regulators in U251 cells; type: cell-based, human; conditions: 0.5 µM
Method: (§1) RT-qPCR was performed as in Melotti et al. (2014, supra) using BioRad equipment and reagents. Cells cultured in nitro were treated with the desired concentration of drug in DMEM-F12 and reduced serum (2.5% FBS) for 16h, unless otherwise noted, and collected in Trizol (Sigma) before total RNA extraction and cDNA synthesis. Primers were as in Table 1. HPRT (gene encoding Hypoxanthine phosphoribosyltransferase 1) and βACTIN were used as housekeeping controls for normalization.
The WNT-TCF-independent repressive activity of CAP2 on epigenetic regulators may be extrapolated to other cancer cells as it was also detected in HT29 and CC14 human colon cancer cells, in MeWo human melanoma cells as well as in U87 and U251 human glioma cells. In all these different human cancer cells, CAP2 (at 0.5 µM) modulated the expression of ZMYND8, SMARCAL1, TBLIXR1, SETD6 and TAF5Ls (Table 15).

[2] = test system: WNT-TCF targets; assay: RT-qPCR gene expression in U87 glioblastoma cells; type: cell-based, human; conditions: 16h, batch 3, vs DMSO=1
Method: as §1
(§2) Primary colon cells CC14, CC36 and mCC11, colon cancer cell lines DLD1, HT29, Ls174T, melanoma cell line MeWo, glioblastoma cell lines U87 and U251, and the lung cancer cell line H358 were cultured in DMEM-F12 with 10% FBS under standard in nitro conditions.

[3] = test system: DLD1 cells; conditions: FACS, vs DMSO
Method: Cell were plated with different concentrations of compounds in a 96-well format and incubated in standard conditions for 6h and imaged. Active (cleaved) Caspase-3^+ apoptosis was determined using the BD Pharmigen kit and FACS (fluorescence-activated cell sorting).

[4] = test system: WNT-TCF targets; assay: RT-qPCR gene expression in DLD1 cells; type: cell-based, human
Method: as §1, §2

[5] = test system: Chemokine/cytokine; assay: RT-qPCR gene expression in Ls174T cells, chemokine/cytokine genes; type: cell-based, human; parameters: key: ratio normalized to DMSO control = 1; conditions: vs DMSO=1
Method: as §1
(§3) Nine components of the three pathways (WNT-TCF, BMP/TGFβ and chemokine/cytokine), and the top 6 repressed epigenetic regulators (ZMYND8, EED, SMARCAL1, TBLIXR1, SETD6 and TAF5L) (Figure 12) were tested for their modulation by dnTCF and their timed response to CAP2 treatment. […] DnTCF also repressed the expression of BMP4, SMAD6, IL8, CXCL3 and CXCL5, but expression of IL33 was enhanced. […] BMP4 and ID2 were also repressed at 2 and 4h but SMAD6 was repressed only at 4h. CXCL3 was already repressed at 2h, IL8 was little affected and IL33 and CXCL5 were enhanced at 2h. At 4 h only CXCL3 was repressed and the other three cytokine/chemokine genes tested (IL8, IL33 and CXCL5) were neither enhanced nor repressed. […] All values are normalized ratios with DMSO-controls, which were equated to 1 Table 14

[6] = test system: WNT-TCF targets; assay: Epistatic rescue with TCF^VP16, DLD1; type: cell-based, human; conditions: CAP2 5µM, 16h
Method: (§4) Lentivectors expressing a TCF4^VP16 protein in a vector independently expressing GFP, or vector alone, plus reporter plasmids were transfected into cells. 72h after transfection cells were visually checked for expression of GFP. Independent batches of cells with >80% GFP expression were chosen for further experimentation and treated with or without compounds in DMEM-F12 (with 2.5% FBS) for 16h and collected in Trizol.
(§5) If the effects of CAP2 on WNT-TCF targets were specific, an activated form of TCF should rescue the repression since CAP2 is likely to act downstream of the APC destruction complex since it was found using an N'Δ form of βCATENIN that is APC insensitive. To activate this last step of canonical WNT signaling, a fusion between TCF and the potent transactivation domain of the viral VP16 protein, TCF^VP16 (Melotti et al., 2014, supra), was used to directly and positively regulate TCF targets. […] Rescue of LGR5, cMYC and ASCL2 repression by CAP2 (at 5µM) was also observed although there was variability between the cell types, similarly to the repression of CDKN1A (Table 8), although in all cases it reversed its enhancement by CAP2 treatment (Table 8).

[7] = test system: BMP/TGFβ; assay: RT-qPCR gene expression in Ls174T cells, BMP/TGFβ genes; type: cell-based, human; conditions: vs DMSO=1
Method: as §1, §3

[8] = test system: WNT-TCF targets; assay: Epistatic rescue with TCF^VP16, mCC11; type: cell-based, human; conditions: CAP2 5µM, 16h
Method: as §4, §5

[9] = DLD1, 1.25µM, 16h, batch 3, vs DMSO=1
[10] = DLD1, 2.5µM, 16h, batch 3, vs DMSO=1
[11] = DLD1, 5µM, 16h, batch 3, vs DMSO=1
[12] = DLD1, 10µM, 16h, batch 3, vs DMSO=1
[13] = Table 7, DLD1, 1.25µM, vs DMSO=1
[14] = Table 7, DLD1, 2.5µM, vs DMSO=1
[15] = Table 11, head 'in vitro', DLD1, concentration not given
[16] = Table 13, DLD1 secondary 3D spheroids, pretreated 2.5µM

CC1=C(C)C(=O)O[C@@H]([C@](C)(O)[C@]2(O)CC[C@@]3(O)[C@@H]4CC=C5CC=CC(=O)[C@]5(C)[C@H]4CC[C@]23C)C1 [CAP2]
EED expression [1]: 0.8 | SETD6 expression [1]: 0.9 | SMARCAL1 expression [1]: 0.5 | TAF5L expression [1]: 1.1 | TBL1XR1 expression [1]: 0.6 | ZMYND8 expression [1]: 0.4 | AXIN2 expression ([2]; 1.25µM): 0.7 | LGR5 expression ([2]; 1.25µM): 0.3 | AXIN2 expression ([2]; 2.5µM): 0.5 | LGR5 expression ([2]; 2.5µM): 0.3 | AXIN2 expression ([2]; 5µM): 0.5 | LGR5 expression ([2]; 5µM): 0.2 | AXIN2 expression ([2]; 10µM): 0.6 | LGR5 expression ([2]; 10µM): 0.2 | concentration from which activated Caspase3 labeled cells increase [3]: 2.5 µM | AXIN2 expression [4, 9]: 1.2 | LGR5 expression [4, 9]: 1.6 | AXIN2 expression [4, 10]: 0.2 | LGR5 expression [4, 10]: 0.3 | AXIN2 expression [4, 11]: 0.3 | LGR5 expression [4, 11]: 0.1 | AXIN2 expression [4, 12]: 0.1 | LGR5 expression [4, 12]: 0.04 | AXIN2 expression level as compared to control ([4]; DLD1, 2D culture, 2.5µm): 0.2 | ASCL2 expression [4, 13]: 0.2 | AXIN2 expression [4, 13]: 0.8 | CDKN1A expression [4, 13]: 7.2 | LEF1 expression [4, 13]: 0.4 | LGR5 expression [4, 13]: 0.5 | cMYC expression [4, 13]: 0.5 | ASCL2 expression [4, 14]: 0.2 | AXIN2 expression [4, 14]: 0.6 | CDKN1A expression [4, 14]: 8.6 | LEF1 expression [4, 14]: 0.3 | LGR5 expression [4, 14]: 0.3 | cMYC expression [4, 14]: 0.2 | ASCL2 expression ([4]; Table 7, DLD1, 5µM, vs DMSO=1): 0.3 | AXIN2 expression ([4]; Table 7, DLD1, 5µM, vs DMSO=1): 0.5 | CDKN1A expression ([4]; Table 7, DLD1, 5µM, vs DMSO=1): 9.0 | LEF1 expression ([4]; Table 7, DLD1, 5µM, vs DMSO=1): 0.1 | LGR5 expression ([4]; Table 7, DLD1, 5µM, vs DMSO=1): 0.1 | cMYC expression ([4]; Table 7, DLD1, 5µM, vs DMSO=1): 0.001 | ASCL2 expression ([4]; Table 7, DLD1, 10µM, vs DMSO=1): 0.3 | AXIN2 expression ([4]; Table 7, DLD1, 10µM, vs DMSO=1): 0.2 | CDKN1A expression ([4]; Table 7, DLD1, 10µM, vs DMSO=1): 6.1 | LEF1 expression ([4]; Table 7, DLD1, 10µM, vs DMSO=1): 0.1 | LGR5 expression ([4]; Table 7, DLD1, 10µM, vs DMSO=1): 0.1 | cMYC expression ([4]; Table 7, DLD1, 10µM, vs DMSO=1): 0.0002 | ASCL2 expression [4, 15]: 0.3 | AXIN2 expression [4, 15]: 0.5 | LGR5 expression [4, 15]: 0.1 | AXIN2 expression ([4]; Table 13, DLD1 2D, 2.5µM): 0.2 | cMYC expression ([4]; Table 13, DLD1 2D, 2.5µM): 0.1 | AXIN2 expression [4, 16]: 0.5 | cMYC expression [4, 16]: 0.4 | CXCL3 expression ([5]; 5µM batch 3, 2h post-treatment): 0.2 | CXCL5 expression ([5]; 5µM batch 3, 2h post-treatment): 1.3 | IL8 expression ([5]; 5µM batch 3, 2h post-treatment): 0.7 | IL33 expression ([5]; 5µM batch 3, 2h post-treatment): 1.4 | CXCL3 expression ([5]; 5µM batch 3, 4h post-treatment): 0.1 | CXCL5 expression ([5]; 5µM batch 3, 4h post-treatment): 1.1 | IL8 expression ([5]; 5µM batch 3, 4h post-treatment): 0.8 | IL33 expression ([5]; 5µM batch 3, 4h post-treatment): 1.1 | ASCL2 expression, TCF^VP16+ CAP2 / control + CAP2 [6]: 1.5 | AXIN2 expression, TCF^VP16+ CAP2 / control + CAP2 [6]: 3.4 | CDKN1A expression, TCF^VP16+ CAP2 / control + CAP2 [6]: 0.4 | LGR5 expression, TCF^VP16+ CAP2 / control + CAP2 [6]: 1.4 | cMYC expression, TCF^VP16+ CAP2 / control + CAP2 [6]: 0.8 | BMP4 expression ([7]; 5µM batch 3, 2h post-treatment): 0.4 | ID2 expression ([7]; 5µM batch 3, 2h post-treatment): 0.7 | SMAD6 expression ([7]; 5µM batch 3, 2h post-treatment): 1.3 | BMP4 expression ([7]; 5µM batch 3, 4h post-treatment): 0.1 | ID2 expression ([7]; 5µM batch 3, 4h post-treatment): 0.1 | SMAD6 expression ([7]; 5µM batch 3, 4h post-treatment): 0.4 | ASCL2 expression, TCF^VP16+ CAP2 / control + CAP2 [8]: 3.5 | AXIN2 expression, TCF^VP16+ CAP2 / control + CAP2 [8]: 21.9 | CDKN1A expression, TCF^VP16+ CAP2 / control + CAP2 [8]: 0.8 | LGR5 expression, TCF^VP16+ CAP2 / control + CAP2 [8]: 2.9 | cMYC expression, TCF^VP16+ CAP2 / control + CAP2 [8]: 3.3
